Source: the METLIN SMRT retention time set (Domingo-Almenara et al. 2019)

Assay: gradient 5% acetonitrile 3 min, to 50% in 2 min, to 85% in 15 min, held 3 min, 100 µL/min
Settings: column: Zorbax Extend-C18 2.1 x 50 mm; eluents: water / acetonitrile, 0.1% formic acid
In short: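 Retention times of pure standards were taken from adduct peaks that were selected by computer and manually inspected. Over 3 months, mixtures of ~100 molecules were run by HPLC–quadrupole time-of-flight mass spectrometry in positive and negative ionization mode. The Zorbax Extend-C18 column (2.1 × 50 mm, 1.8 μm) ran at 100 μL/min in water and acetonitrile, each containing 0.1% formic acid, with 40 μL dead volume and 900 μL dwell volume.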

Compound	RP-LC retention time
COCCCNC(=O)C1c2ccccc2C(=O)N1CCc1ccc(C)cc1 (stereo unspecified)	787 s
CCc1ccc(S(=O)(=O)N2CCc3c(c(-c4nnc(-c5ccccc5)o4)nn3C)C2)cc1	1030 s
CC1CCCN(C(=O)c2cc3c(s2)N(C)CCC3)C1 (stereo unspecified)	976 s
CCCn1cc(-c2nc(-c3ccncc3)no2)c(=O)c2cc(F)ccc21	728 s
COc1ccc(S(=O)(=O)N2CCCC(C(=O)NCC3CCCO3)C2)cc1OC (stereo unspecified)	684 s
COc1ccc2[nH]c(=O)c(CCC(=O)N(C)Cc3cn(C)nc3C)cc2c1	618 s
O=C(Nc1ccc(-c2nc(-c3cccc(Br)c3)co2)cc1)c1ccco1	1150 s
CCN1C=C(C(=O)OCc2cccc(Cl)c2)C(C)=NS1(=O)=O	1050 s
O=C(Cn1c(=O)n(C2CCCCC2)c2ncccc21)NCCCN1CCOCC1	612 s
Cc1ncoc1C(=O)N1CCOc2ccc(N(C)C)cc2C1	572 s
O=C(Cc1nnc2cc(-c3nc(C4CC4)no3)ccn12)NC1CC1	646 s
CC(C)=C1SC(=O)N(CC(=O)Nc2ccc(S(N)(=O)=O)cc2)C1=O	672 s
CNC(=O)Cc1csc(-c2ccccc2F)n1	725 s
Cc1noc(C2(NC(=O)c3cc(F)cc(F)c3)CCCCC2)n1	916 s
CCc1ccc(C2=NN(CCC(=O)NC(C)c3ccc4c(c3)OCCO4)C(=O)CC2)cc1 (stereo unspecified)	832 s
COc1ccc(NC(=O)Cn2ccc3ccc(-c4nnc(C)o4)cc32)cc1	937 s
COc1ccc(OC)c(NC(=O)NCCc2cn(C)c3ncccc23)c1	686 s
CCN1C(=O)COc2ccc(-c3csc(NC(=O)c4ccccc4)n3)cc21	952 s
CC1(C(=O)NCc2ccc(F)cc2)CCN(C(=O)Nc2ccc3c(c2)OCCO3)CC1	653 s
Cn1c(=O)n(CC(=O)Nc2ccccc2Cl)c(=O)c2cnc(-c3ccccc3)nc21	1020 s
COc1ccc(CNC(=O)c2ccc3ncnc(N4CCCC4)c3c2)cc1	624 s
Cc1c(Cl)cccc1N1CCn2c1nc1c2c(=O)n(CC(=O)O)c(=O)n1C	719 s
O=C(c1cc2c(s1)CCCC2)N1CCCN(c2nnc3ccc(Cl)cn23)CC1	863 s

Compound	RP-LC retention time
O=C(CN1C(=O)NC2(CCCCC2)C1=O)NCc1ccccc1F	733 s
Cc1ccc2c(Nc3cccc(C#N)c3)c(C(=O)N3CCCC3)cnc2n1	579 s
CCOC(=O)c1c(C)[nH]c(C)c1S(=O)(=O)N1CCC(C(=O)N2CCc3ccccc3C2)CC1	837 s
COc1ccc(Cl)cc1NS(=O)(=O)c1cc(-c2cc(C(F)(F)F)[nH]n2)sc1C	1060 s
Cn1cc(-c2ccc(F)cc2)cc1C(=O)NC1CC1	847 s
CN(C)c1ccc(CNC(=O)c2nnc(-c3ccc(S(=O)(=O)N4CCOCC4)cc3)o2)cc1	648 s
COCCCNC(=O)C1CCN(Cc2cc3ccccc3n2Cc2ccccc2C)CC1	718 s
Cc1ccccc1C(=O)NCCc1cn(CC(C)C)c2ncccc12	808 s
COc1cc(OC)c(OC)cc1CN1CCC(C)(c2noc(C3CCOCC3)n2)CC1	642 s
Cc1c(CN2CCSCC2)nnn1-c1ccc(F)cc1	610 s
O=S(=O)(c1cccc(-c2nnc(-c3ccc(F)cc3)o2)c1)N1CCCCC1	1080 s
CC1CCn2c(nc3cc(C(=O)N4CCN(c5ncccn5)CC4)ccc32)C1 (stereo unspecified)	593 s
Cc1c(S(=O)(=O)N2CCCC(C)C2)c(C)n(C)c1C(=O)Nc1cccc(F)c1 (stereo unspecified)	1100 s
CCc1cccc(NS(=O)(=O)c2ccc(-c3nnc(C4CCC4)o3)o2)c1	1000 s
CSc1nc2ccc(NC(=O)c3ccc(N4C(=O)CCC4=O)cc3)cc2s1	730 s
CCCN1CC(Oc2ccc(-c3noc(-c4cccnc4)n3)cc2)C1	621 s
CCC(C)c1ccccc1NC(=O)C1CCN(C(=O)C(C)(C)C)CC1 (stereo unspecified)	829 s
CCCCNC(=O)C1Cc2ccccc2CN1S(=O)(=O)c1ccccc1 (stereo unspecified)	960 s
CCn1c(=O)sc2cc(S(=O)(=O)N3CCC(C(=O)Nc4ccccc4OC)CC3)ccc21	917 s
CC(C)n1cnc(S(=O)(=O)N2CCC(C(=O)Nc3ccc(OC(F)(F)F)cc3)CC2)c1	888 s
CCc1cccc(NC(=O)Cn2c(N)nc(C)cc2=O)c1	618 s
COc1ccc(NC(=O)NCC23CCCC=C2NC(=O)CC3)cc1 (stereo unspecified)	593 s
O=C(NCc1cccs1)c1coc(NC(=O)c2ccco2)n1	632 s

Compound	RP-LC retention time
CCN1CCN(C(=S)Nc2ccc3nc(N4CCN(CC)CC4)cc(C)c3c2)CC1	519 s
CN1C(=O)c2cc(C(=O)NCc3ccc(F)cc3)nn2CC1(C)C(=O)NCc1ccc(F)cc1 (stereo unspecified)	760 s
CCC(C)NC(=O)c1cc2c(s1)N(CC1CC1)CCCC2 (stereo unspecified)	1090 s
CCOc1cc(C(=O)N2CCCC2c2nc(-c3ccc(C)cc3)no2)cc(OCC)c1OCC (stereo unspecified)	1200 s
O=C(Nc1nccs1)c1cc(N2C(=O)C3C4CCC(C4)C3C2=O)ccc1Cl (stereo unspecified)	742 s
COc1cc(NC(=O)N2CCN(c3ccc(=O)n(-c4ccc(F)cc4)n3)CC2)cc(OC)c1OC	723 s
CC(C)OCCCNC(=O)Cn1c(=O)c2cccn2c2ccc(F)cc21	754 s
CC(C)NC(=O)C1CCN(c2nc3ccc(-c4cccnc4)nc3s2)CC1	605 s
COc1nc2ccccc2nc1N1CCCC(C(=O)Nc2cc(F)ccc2F)C1 (stereo unspecified)	1200 s
Cn1cc(-c2cc3n(n2)CCC(=O)N3CCCC(=O)NCC2COCCO2)c2ccccc21 (stereo unspecified)	680 s
COc1ccc(CNC(=O)c2ccc3c(=O)n(Cc4ccccc4)c(N4CCCC4)nc3c2)cc1	956 s
CCOC(=O)c1[nH]c(C)c(C(=O)C(C)N(C(=O)c2ccc(F)cc2)C2CC2)c1C (stereo unspecified)	890 s
COc1ccc(NC(=O)C2CCCN(c3nc4cccnc4s3)C2)cc1 (stereo unspecified)	797 s
CCc1ccc(N2CC(c3noc(-c4ccc(Cl)cc4)n3)CC2=O)cc1 (stereo unspecified)	1200 s
CCN1C(=O)c2cccnc2Sc2cc(CNC(=O)c3ccc(C#N)cc3)ccc21	756 s
O=C(NCCCN1CCCC1)C1CCc2sc(C(=O)N3CCOCC3)cc2C1 (stereo unspecified)	566 s
COCCN1C(=O)c2ccccc2C(C(=O)Nc2ccc(OC)cc2OC)C12CCCC2 (stereo unspecified)	871 s
CCc1nc2c(c(=O)n1CC(=O)NCc1ccc(C)c(C)c1)CN(Cc1ccccc1)CC2	694 s
CCCn1c(=O)c2sc(N3CCCC3)nc2n(CC(=O)NCCC2=CCCCC2)c1=O	997 s
O=S(=O)(c1ccc(F)c(Cl)c1)N1CC(F)(F)C[C@H]1CN1CCc2ccccc2C1	791 s
O=C(NC1CC(=O)N(C2CC2)C1)c1ccc(Cl)s1 (stereo unspecified)	639 s
CCc1cccc(-n2nnc(C(=O)O)c2CC)c1	788 s
CCCN1CCN(C(=O)CCc2c(C)c(C(=O)OCC)n(C)c2C)CC1	641 s

Compound	RP-LC retention time
C=CCn1c(=O)c2ccccc2n(Cc2nc(-c3ccc4c(c3)OCO4)no2)c1=O	998 s
Cc1cc(Cl)ccc1S(=O)(=O)NCC1CN(C)CC12CCCCC2 (stereo unspecified)	713 s
O=C(NC1CCCC1)c1ccc(-c2cccs2)nc1	849 s
Cc1ccc(-n2nc3c(=O)n(C(C)C(=O)NCc4ccc5c(c4)OCO5)nc(C)c3c2C)cc1 (stereo unspecified)	878 s
COc1ccc(C)cc1NC(=O)Cn1nc(N2CCCC2)c2ccccc2c1=O	840 s
COc1ccc(CC(C)(O)CNC(=O)c2cccc(C(F)(F)F)c2)cc1 (stereo unspecified)	823 s
Cn1ncc2c(Nc3ccc([N+](=O)[O-])cc3)nc(Cl)nc21	963 s
CCOC(=O)C1=C(CN2CC=C(c3ccccc3)CC2)NC(=O)NC1c1cccc(OC)c1OC (stereo unspecified)	704 s
O=C(c1cccs1)N1CCOc2ccc(N3CCCC3)cc2C1	825 s
Cc1ccc2c(Nc3ccc(F)cc3)c(C(=O)N3CCCC3)cnc2n1	594 s
COCCNC(=O)Cc1c(C)n(Cc2ccccc2)c2nc(-c3ccccc3)nn2c1=O	776 s
O=C(NCCc1ccccc1)C1CCN(C(=O)C2Sc3ccccc3NC2=O)CC1 (stereo unspecified)	740 s
CN1CCN(Cc2ccc(C(=O)NCCC3=CCCCC3)cc2)C(=O)C1=O	698 s
COc1ccc(N2CCN(CCNC(=O)c3cccs3)CC2)cc1	557 s
CC(C)NC(=O)C(=O)c1c(-c2ccccc2)[nH]c2ccccc12	776 s
COCCn1c(C2CCN(S(=O)(=O)c3ccc(C)c(Cl)c3)C2)nc2ccncc21 (stereo unspecified)	591 s
Cc1ccc(N2CC(C(=O)NC(C)C)CC2=O)cc1 (stereo unspecified)	712 s
COC(=O)c1cc(S(=O)(=O)N2CCCC2C(=O)Nc2cccc(OC)c2)cn1C (stereo unspecified)	826 s
O=C(C1CCOC1)N1CCC(CCOc2cccc(F)c2)CC1 (stereo unspecified)	834 s
CCCS(=O)(=O)N1CCC(Cc2ccc(COc3ccncc3)cc2)CC1	701 s
O=C(c1ccncc1)N1CCCC(OCc2nc(C3CC3)no2)C1 (stereo unspecified)	620 s
Cn1c(=O)c(C(=O)NCc2ccccc2)nc2cccnc21	735 s
